Reference: US20090285862A1, “METHODS AND COMPOSITION FOR TREATMENT OF INFLAMMATORY PAIN” (priority 2006, published 2009)
Marks after values point to notes of the source that are not given here.

Key:
[1] = test system: carrageenan-induced allodynia; test: carrageenan paw inflammation, reversal of allodynia assessed with Von Frey hairs; format: in vivo, rat; details: rats, IP, non-sedating doses, drug administered alone
Protocol: (§1) Experiments were performed on male Wistar rats (wt 150-220 g). Three series of experiments were performed in an observer blinded fashion with saline (negative) controls and GABAPentin (positive) controls. The investigations were in three stages: • 1. a range of doses of aprepitant (an example of a NK antagonist) given alone and in combination with flupiritine (an example of an inhibitor of neuronal excitation) were tested for sedating effects using the open field activity monitor. In this way it was determined which doses of drug and drug combinations could be used to test for analgesic effects without causing sedation; • 2. a range of doses of aprepitant given alone and in combination with flupirtine were tested for the ability to reverse the allodynia effect causes by intraplantar injection of carrageenan; • 3. a range of doses of aprepitant given alone and in combination with flupirtine were tested for the ability to reverse the allodynia and hyperalgesia caused by streptozotocin-induced diabetic neuropathy.
Inflammation involves the release of a number of substances into the tissues following injury. These substances including prostaglandins, bradykinin, inflammatory peptides such as substance P and calcitonin gene related peptide and also a number of cytokines. […] Nociceptive thresholds were measured in groups of rats prior to the intraplantar injection. […]

male Wistar rats = test: open field activity monitor, testing for sedation; format: in vivo, rat; details: for open field activity monitor, mean: male, Wistar, rat, in vivo, ip, 20 min
Protocol: as §1
Individual rats (several rats per treatment group) were placed in an open field activity monitor in which the movement of the rat could be monitored remotely by the frequency and number of interruption of infrared beams directed across the box in a grid. The activity in the monitor was measured for periods of 20 minutes in each rat. This was performed in groups of rats that received (1) control injection of saline, (2) GABAPentin 50 mg/kg as the maximum dose of the drug found previously not to be sedating (drug positive control) administered intraperitoneally, or (3) after pharmacological interventions that involve the administration of aprepitant and flupiritine given at a range of doses alone and in combination. If a rat was sedated by a drug or drug combination, the movements recorded were less. Since rates became habituated to the open field monitor, only one experiment was performed on each rat with this test.
Rats are observed in a commercially available open-field arena in which locomotor and exploratory activity can be monitored in darkness by the breaking of infrared beams arranged in a grid pattern over the entire area (MedAssociates Inc. St. Albans, Vt., USA 05478). The observations are started 5 minutes after the intraperitoneal administration of drugs. The total time of observations in all cases is 20 minutes. In order to avoid habituation to the activity monitor, animals are used once in this test for sedation. Rest time is defined as the time spent with no new infrared beam interruptions.

| SMILES | antinociception, reversal of carrageenan-induced allodynia (Von Frey) [1] | open field activity monitor, mean (male Wistar rats; 6.25 mg/kg) | open field activity monitor, mean (male Wistar rats; 12.5 mg/kg) | open field activity monitor, mean (male Wistar rats; 25 mg/kg) | open field activity monitor, mean (male Wistar rats; 50 mg/kg) | open field activity monitor, mean (male Wistar rats; 100 mg/kg) | dose causing no sedating effects (upper limit) (male Wistar rats; rats, drug given alone) | maximum dose found previously not to be sedating (male Wistar rats; rats, intraperitoneally, found previously) |
| --- | --- | --- | --- | --- | --- | --- | --- | --- |
| C[C@@H](O[C@H]1OCCN(Cc2n[nH]c(=O)[nH]2)[C@H]1c1ccc(F)cc1)c1cc(C(F)(F)F)cc(C(F)(F)F)c1 [aprepitant] | neither flupirtine or aprepitant given at non-sedating doses caused any antinociception | 869.0 | 915.0* | 964.6* | 976.6* | 1058.2* | ≤ 6.25 mg/kg |  |
| NCC1(CC(=O)O)CCCCC1 [GABAPentin] |  |  |  |  |  |  |  | 50 mg/kg |
